Measurements: patent US11628198B2, “Methods for prevention and treatment of acute renal injury” (Cornell University, priority 2008, dated 2023)

How the values were obtained:
Format in all cases: in vivo, rat
[1] = test system: radiocontrast dye-induced renal failure; experiment: CIN, indomethacin/L-NAME model, Experiment 2
Protocol: Animal model: The same indomethacin and L-NAME model described above was used in this experiment. In this model, impaired renal function was induced by the administration of indomethacin (8 mg/kg) and L-NAME (10 mg/kg).
Renal function: Renal function was assessed by determining serum and urinary creatinine using DICT-kit from Bioassays Systems (Hayward, Calif.) at baseline and 26 h following dye administration. Urinary protein concentration was also determined at baseline and 26 h following dye administration by BCA Protein Assay kit (Thermo Scientific, Rockford, Ill.). Samples were analyzed by students t-test and differences were considered significant at p<0.05.
Renal Histology: Kidneys were fixed in 10% neutral-buffered formalin and embedded in paraffin wax. Three micron sections were stained with hematoxylin-eosin (H&E) and periodic acid-Schiff (PAS) and analyzed by light microscopy by a board certified pathologist.

[2] = test system: ARI caused by ureteral obstruction (UUO); experiment: 14-day UUO model: renal histology (trichrome, interstitial volume); conditions: obstructed kidney
Protocol: Sprague-Dawley rats underwent unilateral ureteral ligation (UUO) with 4-0 silk suture through a midline abdominal incision under sterile conditions. Ureteral obstruction was carried out by ligating the left ureter at the end of lower ureter, just above the ureterovesical junction.
SS-31 (1 mg/kg or 3 mg/kg; n=8) was administered intraperitoneally, one day prior to UUO and continuing for 14 days. A separate group of animals was given saline, as a vehicle control (n=16).
Renal Histology: Trichrome sections of paraffin embedded specimens were examined by a board-certified pathologist (SVS, renal pathology specialist), and fibrosis scored on a scale of 0-+++.

[3] = test system: contrast induced nephropathy in diabetic animal model; experiment: CIN in diabetic (HFD/STZ) rats with iohexol, Experiment 1
Protocol: Animal model: Impaired renal function caused by diabetes is one of the major predisposing factors for contrast induced nephropathy (McCullough, P et al., J. Am. College of Cardiology, 2008, 51, 1419-1428). In this experiment, a total of 57 SD rats were fed with high fat diet for 6 weeks, followed by the injection with low dose streptozotocin (30 mg/kg). After 9 more weeks, the blood glucose, scrum creatinine and Cystatin C was measured. Based on the following selection criteria: Scr>250 μM, Cystatin C>750 ng/ml and blood glucose>=[…], 20 rats were selected to proceed with the contrast induced nephropathy study.
The animals were divided into 2 groups. Group 1 rats were fed administered iohexol and SS-31; Group 2 rats were administered iohexol and a control vehicle. On day 1, serum samples were collected from the rats in each group and total protein in urine was measured using a Bradford assay. On days 2 and 3, 3 mg/kg SS-31 (Group 1) or a vehicle (Group 2) was administered s.c. 30 min prior to the dye injection (6 mL/kg i.v. tail vein). SS-31 (Group 1) or PBS (Group 2) administration was repeated at both 2 h and 24 h post-dye administration. Serum and urine samples were collected at days 4 and 5. The rats were euthaniszed on day 5 to harvest kidneys and vital organs. Samples were analyzed by students t-test and differences were considered significant at p<0.05.
Renal function: Renal function was assessed by determining serum and urinary creatinine using Jiancheng Cr kit (Nanjing, P.R.C) at baseline, 48 h and 72 h following dye administration. The creatinine clearance was calculated based on the Scr, Ucr and Urinary volume. Urinary protein concentration was determined by Bradford Protein Assay kit (Sigma, St. Louis, Mo.). The Cystatin C was measured Westang Rat Cystatin C kit (Shanghai, P.R.C.)

[4] = test system: contrast induced nephropathy in diabetic animal model; experiment: CIN in diabetic (HFD/STZ) rats with iohexol, Experiment 2
Protocol: In this experiment, 30 SD rats were fed with high fat diet for 6 weeks, followed by the injection with low dose streptozotocin (30 mg/kg). After 9 more weeks, the rats were used in the contrast induced nephropathy study. The animals were divided into 2 groups with the doses, dosing schedules and study protocol as follows. On day 0, the weight of the animals was determined and glucose and serum samples were collected. On day 1, Scr was assayed and spot urine collection performed. On days 2 and 3, 3 mg/kg SS-31 (Group 1) or a vehicle (Group 2) was administered s.c. 30 min prior to the dye injection (6 mL/kg i.v. tail vein). SS-31 (Group 1) or PBS (Group 2) administration was repeated at 2 h, 1 day, 2, days, 3 days, 4 days, and 5 day post-dye administration. On day 8, serum and urine samples were collected and the rats were euthaniszed to harvest kidneys and vital organs.
Renal function: Renal function was assessed by determining serum and urinary creatinine using Jiancheng Cr kit (Nanjing, P.R.C) at baseline, 24 h, 3 day and 6 days following contrast dye (Iohexol) administration. The creatinine clearance was calculated based on the Scr, Ucr and Urinary volume. Samples were analyzed by students t-test and differences were considered significant at p<0.05.

[5] = 26 h post contrast dye vs baseline

D-Arg-2′6′Dmt-Lys-Phe-NH2 [SS-31]
SCr ([1]; 1 day (26 h post dye)): 0.73 ± 0.04 mg/dL | U protein BCA ([1]; 1 day (26 h post dye)): 11.76 ± 2.71 mg/mL | Ucr ([1]; 1 day (26 h post dye)): 38.12 ± 8.19 mg/dL | Scr increase [1, 5]: 9% | urinary protein concentration increase [1, 5]: 1.7 fold | rats protected from contrast dye induced nephropathy (Scr increase less than 25% at 26 h post dye) ([1]; 26 h post dye): Five out of seven | SCr ([1]; Baseline): 0.67 ± 0.09 mg/dL | U protein BCA ([1]; Baseline): 4.28 ± 1.15 mg/mL | Ucr ([1]; Baseline): 15.54 ± 3.87 mg/dL | PAS staining of kidney ([1]; dye-injected): intact brush borders and normal glomeruli | trichrome staining (fibrosis), cortex [2]: 0-trace | trichrome staining (fibrosis), medulla [2]: tr− 1+ | medullary interstitial volume ([2]; 1 mg/kg i.p. daily): 54.9±2.3% | medullary interstitial volume ([2]; higher dose): also effective | Cystatin C ([3]; Baseline): 708.6 ± 51.3 ng/mL | GFR ([3]; Baseline): 140.0 ± 11.1 μl/min/100 g | Scr ([3]; Baseline): 305.7 ± 15.1 µmol/L | U protein ([3]; Baseline): 4.83 ± 1.03 mg/4 h | U vol ([3]; Baseline): 15.4 ± 2.6 mL | Ucr ([3]; Baseline): 3187.0 ± 196.9 µmol/L | Cystatin C ([3]; T1 (48 h post dye)): 1008.1 ± 46.4 ng/mL | GFR ([3]; T1 (48 h post dye)): 149.3 ± 15.6 μl/min/100 g | Scr ([3]; T1 (48 h post dye)): 285.4 ± 12.0 µmol/L | U protein ([3]; T1 (48 h post dye)): 4.71 ± 0.60 mg/4 h | U vol ([3]; T1 (48 h post dye)): 17.4 ± 1.6 mL | Ucr ([3]; T1 (48 h post dye)): 2816 ± 163.6 µmol/L | Cystatin C ([3]; T2 (72 h post dye)): 1303.6 ± 147.1 ng/mL | GFR ([3]; T2 (72 h post dye)): 162.7 ± 18.7 μl/min/100 g | Scr ([3]; T2 (72 h post dye)): 295.7 ± 20.6 µmol/L | U protein ([3]; T2 (72 h post dye)): 3.59 ± 1.0 mg/4 h | U vol ([3]; T2 (72 h post dye)): 20.5 ± 2.3 mL | Ucr ([3]; T2 (72 h post dye)): 2675.4 ± 100.8 µmol/L | GFR ([4]; Baseline): 159.2±25.1 μl/min/100 g | Scr ([4]; Baseline): 214.6 ± 15.4 µmol/L | U protein ([4]; Baseline): 5.4 ± 1.1 mg/4 h | U vol ([4]; Baseline): 18.1 ± 4.4 mL | Ucr ([4]; Baseline): 4182.5 ± 699.8 µmol/L | GFR ([4]; T1 (24 h post dye)): 159.9±9 μl/min/100 g | Scr ([4]; T1 (24 h post dye)): 168.6 ± 21.9 µmol/L | U protein ([4]; T1 (24 h post dye)): 3.6 ± 0.8 mg/4 h | U vol ([4]; T1 (24 h post dye)): 15.2 ± 4.3 mL | Ucr ([4]; T1 (24 h post dye)): 4488.9 ± 861.6 µmol/L | GFR ([4]; T2 (3 day post dye)): 100.9 ± 16.7 μl/min/100 g | Scr ([4]; T2 (3 day post dye)): 236.2 ± 26.6 µmol/L | U protein ([4]; T2 (3 day post dye)): 4.3 ± 0.9 mg/4 h | U vol ([4]; T2 (3 day post dye)): 12.8 ± 3.6 mL | Ucr ([4]; T2 (3 day post dye)): 4744.8 ± 1350.6 µmol/L | GFR ([4]; T3 (6 days post dye)): 121.5 ± 9.1 μl/min/100 g | Scr ([4]; T3 (6 days post dye)): 175.3 ± 25.9 µmol/L | U protein ([4]; T3 (6 days post dye)): 2.4 ± 0.4 mg/4 h | U vol ([4]; T3 (6 days post dye)): 9.6 ± 2.3 mL | Ucr ([4]; T3 (6 days post dye)): 4030.7 ± 620 µmol/L
